Data reported in patent publication US8097585B2, “Methods of treating inflammation by administration of heme oxygenase-1 and products of heme degradation” (priority 2002, dated 2012).
Where a name gives a salt, the structure may show the parent alone.

Columns and labels:
[1] = test system: IL-6; assay: Real time RT-PCR of graft muscularis after SITx, IL-6; assay type: in vivo, LEW rats
Description: Small Intestinal Transplantation. Orthotopic small intestinal transplantation (SITx) was performed in syngeneic Lewis rats. SITx with caval drainage was performed using a previously described procedure (Murase et al., in Handbook of Animal Models in Transplantation Research, Cramer et al., Eds. CRC Press, Boca Raton, Fla., pp. 203-213 (1994)). […] The graft was perfused via the aortic segment with 5 ml chilled Ringer's lactate solution, and the intestinal lumen was irrigated with 20 ml of cold saline solution containing 0.5% neomycin-sulfate (Sigma, St. Louis, Mo.). End-to-side anastomoses between the graft aorta and the recipient infrarenal aorta, and between the graft portal vein and recipient vena cava, were performed with 10-0 Novafil™ suture. The cold ischemic time was 1 hour. The entire recipient intestine was removed and the enteric continuity was restored by proximal and distal end-to-end intestinal anastomoses. Recipient animals were given 20 mg/day prophylactic cefamandole nafate for 3 postoperative days. Transplanted recipients were given water 3 hours after surgery, and were fed 24 hours after surgery.
(§1) SYBR green real time RT-PCR. The effects of administration of biliverdin on transplant-induced pro-inflammatory and anti-inflammatory gene expression were assessed in muscularis extracts by RT-PCR Biliverdin ([…], i.p.) was administered to both the donor and recipient three hours preoperatively. The muscularis externae was collected from normal intestine and transplanted grafts 4 hours postoperatively and snap frozen in liquid nitrogen. […] Equal aliquots (5 μg) of total RNA from each sample were quantified by spectrophotometry (wavelength […]) and aliquoted at a concentration of 40 ng/μl. Peak mRNA expression was quantified in duplicate by SYBR Green two-step, real-time RT-PCR. […] Real-time PCR data were plotted as the ΔRn fluorescence signal versus the cycle number. […] Quantification of mRNA expression was normalized to GAPDH and calculated relative to control using the comparative CT method (Schmittgen et al., J. Biochem. Biophys. Methods 46(1-2):69-8, 2000). […]

[2] = test system: nitric oxide; assay: Serum nitrite/nitrate, SITx with preserved intestine; assay type: in vivo, LEW rats
Description: Detection of Serum Mediators. Serum samples from the recipients transplanted with preserved intestine were taken at 3 and 12 hours after reperfusion and stored at […] until evaluation. Serum IL-6 was determined using a rat enzyme-linked immunoassay (ELISA) kits as described by the manufacturer (R & D Systems, Inc., Cambridge, Mass.). To monitor the production of nitric oxide, the stable end products of NO metabolism, serum nitrite/nitrate levels, were measured 12 hours after engraftment using a commercially available test kit (Cayman, Ann Arbor, Mich.). In this assay system, nitrate is reduced to nitrite using nitrate reductase, and the nitrite concentration of the sample is subsequently measured using the Griess reaction.

[3] = test system: TNF-α; assay: Real time RT-PCR of graft muscularis after SITx, TNF-α; assay type: in vivo, LEW rats; conditions: BV treatment, 4 hours
Description: Small Intestinal Transplantation. Orthotopic small intestinal transplantation (SITx) was performed in syngeneic Lewis rats. SITx with caval drainage was performed using a previously described procedure (Murase et al., in Handbook of Animal Models in Transplantation Research, Cramer et al., Eds. CRC Press, Boca Raton, Fla., pp. 203-213 (1994)). […] The graft was perfused via the aortic segment with 5 ml chilled Ringer's lactate solution, and the intestinal lumen was irrigated with 20 ml of cold saline solution containing 0.5% neomycin-sulfate (Sigma, St. Louis, Mo.). […]
as §1, with “preoperatively.” for “preoperatively. The muscularis externae was collected from normal intestine and transplanted grafts 4 hours postoperatively and snap frozen in liquid nitrogen.”

[4] = test system: IL-10; assay: Endotoxic shock (LPS) model, serum IL-10; assay type: in vivo, Sprague-Dawley rats; conditions: biliverdin i.p. […] 17 h and 1 h prior to and 8 h after LPS
Description: Treatment Protocol. Endotoxin (lipopolysaccharide/LPS; Sigma; E. coli serotype 0128:B7; 3 mg/kg, i.v.) was administered to male Sprague-Dawley, resulting in an acute non-lethal inflammation. In rats, a sublethal dose of LPS results in a moderate lung inflammation characterized by neutrophil accumulation and protein accumulation in the airspace, both markers of lung inflammation. The pro-inflammatory cytokine TNF-alpha increases very rapidly in the serum, peaking by 60-90 minutes. This is followed by increases in IL-10, a prototypical anti-inflammatory cytokine that peaks 8-12 hr later.
Administration of Biliverdin. Biliverdin (Frontier Scientific: prepared in PBS following solubilization in NaOH) was administered i.p. at […] 17 hours prior to, one hour prior to, and eight hours after LPS administration.
Bronchoalveolar Lavage. A bronchoalveolar lavage (BAL) was performed 24 hours after LPS administration. Serum cytokines were measured using commercially available ELISA kits (R&D Systems Inc.) per the manufacturer's instructions. Total protein was determined via a standard Bradford assay based on a standard curve. […] Total cell count was determined as well as differential analysis of cell type and morphology via Diff-Quik® Fixative (American Scientific Products) staining of a sample of the lavagate.

[5] = test system: IL-2 receptor α-chain (IL-2Rα, CD25); assay: Flow cytometric analysis of IL-2R (CD25) expression; assay type: cell-based, mouse; conditions: biliverdin 100 μM, anti-CD3 mAb stimulated, 6 and 24 hours
Description: Flow cytometric analysis (IL-2R expression). B6AF1 leukocytes (5×10^5 cells/well) were stimulated with anti-CD3 mAb (1 μg/ml) and cultured in 96 well round bottom plates with or without biliverdin (100 μM). Six and 24 hours after stimulation, cells were harvested, washed, and stained with fluorochrome conjugated isotype control Abs, or specific anti-CD4 and/or anti-CD25 mAbs (all antibodies obtained from BD Pharmingen). Non-stimulated naïve leukocytes were used as a negative control. Following Abs staining, cell samples were analyzed using a FACSort™ flow cytometer and CellQuest™ software (BD Biosciences, Palo Alto, Calif.). Ten thousand CD4+ T cells were acquired for each sample and their CD25 expression was examined. The experiment was repeated 3 times.

## C=CC1=C(C)/C(=C/C2=NC(=C\c3[nH]c(/C=C4\NC(=O)C(C)=C4C=C)c(C)c3CCC(=O)O)/C(CCC(=O)O)=C2C)NC1=O [biliverdin, biliverdin dihydrochloride]
[1]; BV 50 mmol/kg i.p. donor and recipient, 4 hours, versus saline-treated graft
  reduction of IL-6 mRNA expression: 24%
[1]; BV treatment of unoperated animals
  basal mRNA expression of any of the cytokines: did not alter
[2]; BV treated controls (no transplant)
  mean serum nitrite/nitrate (NO) level: 18.4 ± 3.2 µM
[2]; SITx, 12 hours after engraftment
  decrease of transplantation-induced serum NO levels: 53%
[2]; SITx, 12 hours after engraftment, untreated 34.4±15.2
  serum NO level: 18.2 ± 3.9 µM
[3]
  upregulation of TNF-α mRNA caused by transplantation: did not significantly change
[4]
  IL-10 level: augmentation
[5]
  expression of IL-2Rα (CD25) on splenic CD4+ T cells: did not affect
